From ChEMBL document CHEMBL4229350, “Antimicrobial activity and self-assembly behavior of antimicrobial peptide chensinin-1b with lipophilic alkyl tails” (Eur J Med Chem, 2018)
In brackets after ≈: the same amount, converted by molar mass. Activity calls are given as the source filed them. The calls are words filed in the database; no cut-off is given here. Peptide text beside a SMILES is read from it. * marks the point of attachment. Palmitoyl = CCCCCCCCCCCCCCCC(=O)*

Legend:
Staphylococcus aureus [1] = assay: Antimicrobial activity against Staphylococcus aureus AS 1.72 assessed as induction of outer membrane permeabilization by measuring NPN uptake by fluorescence assay; assay type: functional, organism-based
Pseudomonas aeruginosa = assay: Antimicrobial activity against Pseudomonas aeruginosa CGMCC 1.860 after 18 hrs by micro dilution method; assay type: functional; conditions: CGMCC 1.860, 18 h
Enterococcus faecalis = assay: Antimicrobial activity against Enterococcus faecalis CGMCC 1.595 after 18 hrs by micro dilution method; assay type: functional; conditions: CGMCC 1.595, 18 h
Lipid bilayer [2] = assay: Induction of membrane permeabilization in calcein loaded PG/CL large unilamellar vesicles assessed as calcein leakage at 6 uM after 15 mins by fluorescence assay relative to control
Escherichia coli [3] = assay: Antimicrobial activity against Escherichia coli AS 1.349 after 18 hrs by micro dilution method; assay type: functional; conditions: AS 1.349, 18 h
Lipid bilayer [4] = assay: Induction of membrane permeabilization in calcein loaded PG/CL/PE large unilamellar vesicles assessed as calcein leakage at 3 uM after 10 mins by fluorescence assay relative to control
Lipid bilayer [5] = assay: Induction of membrane permeabilization in calcein loaded LPS/PC/PG large unilamellar vesicles assessed as calcein leakage after 15 mins by fluorescence assay
Lipid bilayer [6] = assay: Induction of membrane permeabilization in calcein loaded PG/CL large unilamellar vesicles assessed as calcein leakage at 3 uM after 10 mins by fluorescence assay relative to control
[7] = Cytotoxicity against human U937 cells assessed as cell viability at 3.13 to 12.6 uM after 1 hr by MTT assay relative to control; assay type: cell-based, U-937; conditions: read-out: Activity
U-937 [8] = assay: Antiinflammatory activity in human U937 cells assessed as inhibition of LPS-induced TNF-alpha production at 12.6 uM after 24 hrs by ELISA relative to control; assay type: functional; conditions: U-937, 24 h
Lipid bilayer [9] = assay: Induction of membrane permeabilization in PG/CL large unilamellar vesicles assessed as blue shift at compound to lipid ratio of 60 by Tryptophan fluorescence spectroscopy
U-937 [10] = assay: Antiinflammatory activity in human U937 cells assessed as inhibition of LPS-induced TNF-alpha production at 3.13 uM after 24 hrs by ELISA relative to control; assay type: functional; conditions: U-937, 24 h
[11] = Self-assembly property assessed as diameter of monodispersed micelles at 1 mg/ml at pH 7 by TEM analysis; assay type: physicochemical
MCF7 = assay: Cytotoxicity against human MCF7 cells assessed as reduction in cell viability after 1 hr by MTT assay; assay type: functional, cell-based; conditions: MCF7, 1 h
Lipopolysaccharide (LPS) [12] = assay: Induction of LPS micelles disaggergation assessed as abundant particle size formation at 2 uM by DLS method
A-375 = assay: Cytotoxicity against human A375 cells assessed as reduction in cell viability after 1 hr by MTT assay; assay type: functional, cell-based; conditions: A-375, 1 h
U-937 [13] = assay: Antiinflammatory activity in human U937 cells assessed as inhibition of LPS-induced TNF-alpha production after 24 hrs by ELISA; assay type: functional, cell-based
U-937 [14] = assay: Antiinflammatory activity in human U937 cells assessed as inhibition of LPS-induced IL-6 production at 3.13 uM after 24 hrs by ELISA relative to control; assay type: functional; conditions: U-937, 24 h
Lipid bilayer [15] = assay: Induction of membrane permeabilization in PG/CL/PE large unilamellar vesicles assessed as blue shift at compound to lipid ratio of 10 by Tryptophan fluorescence spectroscopy
Lipopolysaccharide (LPS) [16] = assay: Binding affinity to Escherichia coli 0111:B4 LPS assessed as equilibrium association constant by ITC method
U-937 [17] = assay: Antiinflammatory activity in human U937 cells assessed as inhibition of LPS-induced IL-6 production after 24 hrs by ELISA; assay type: functional, cell-based
Staphylococcus aureus [18] = assay: Antimicrobial activity against Staphylococcus aureus AS 1.72 after 18 hrs by micro dilution method; assay type: functional; conditions: AS 1.72, 18 h
[19] = Self-assembly property assessed as diameter of tightly packed nanofibers at 1 mg/ml at pH 2 by TEM analysis; assay type: physicochemical
U-937 [20] = assay: Antiinflammatory activity in human U937 cells assessed as inhibition of LPS-induced TNF-alpha production at 6.25 uM after 24 hrs by ELISA relative to control; assay type: functional; conditions: U-937, 24 h
Lipid bilayer [21] = assay: Induction of membrane permeabilization in PC/cholesterol large unilamellar vesicles assessed as blue shift by Tryptophan fluorescence spectroscopy
U-937 [22] = assay: Antiinflammatory activity in human U937 cells assessed as inhibition of LPS-induced IL-6 production at 6.25 uM after 24 hrs by ELISA relative to control; assay type: functional; conditions: U-937, 24 h
Escherichia coli [23] = assay: Antimicrobial activity against Escherichia coli AS 1.349 assessed as induction of bacterial cytoplasmic membrane depolarization at 2 times MIC after 7 mins by diSC3-5 dye-based fluorescence assay; assay type: functional, organism-based
Staphylococcus aureus [24] = assay: Antimicrobial activity against Staphylococcus aureus AS 1.72 assessed as induction of bacterial cytoplasmic membrane depolarization at 2 times MIC after 6 mins by diSC3-5 dye-based fluorescence assay; assay type: functional, organism-based
Lipid bilayer [25] = assay: Induction of membrane permeabilization in calcein loaded PC/cholesterol large unilamellar vesicles assessed as calcein leakage at 50 uM after 10 mins by fluorescence assay relative to control
HeLa = assay: Cytotoxicity against human HeLa cells assessed as reduction in cell viability after 1 hr by MTT assay; assay type: functional, cell-based
[26] = Self-assembly property assessed as diameter of monodispersed micelles at 1 mg/ml at pH 2 by TEM analysis; assay type: physicochemical
Enterococcus faecium = assay: Antimicrobial activity against Enterococcus faecium CGMCC 1.2334 after 18 hrs by micro dilution method; assay type: functional; conditions: CGMCC 1.2334, 18 h
[27] = Hemolytic activity against human erythrocytes after 1 hr; assay type: ADME, cell-based, Erythrocyte
Bacillus cereus = assay: Antimicrobial activity against Bacillus cereus AS 1.126 after 18 hrs by micro dilution method; assay type: functional; conditions: AS 1.126, 18 h
Lipid bilayer [28] = assay: Induction of membrane permeabilization in calcein loaded LPS/PC/PG large unilamellar vesicles assessed as calcein leakage at 50 uM after 15 mins by fluorescence assay relative to control
Escherichia coli [29] = assay: Antimicrobial activity against Escherichia coli AS 1.349 assessed as induction of outer membrane permeabilization by measuring NPN uptake by fluorescence assay; assay type: functional, organism-based
Lipopolysaccharide (LPS) [30] = assay: Induction of LPS micelles disaggergation assessed as small particle distribution at 2 uM by DLS method
Lipid bilayer [31] = assay: Induction of membrane permeabilization in calcein loaded PG/CL/PE large unilamellar vesicles assessed as calcein leakage at 6 uM after 15 mins by fluorescence assay relative to control
Lactococcus lactis = assay: Antimicrobial activity against Streptococcus lactis AS 1.1690 after 18 hrs by micro dilution method; assay type: functional; conditions: AS 1.1690, 18 h
U-937 [32] = assay: Antiinflammatory activity in human U937 cells assessed as inhibition of LPS-induced IL-6 production at 12.6 uM after 24 hrs by ELISA relative to control; assay type: functional; conditions: U-937, 24 h
Lipopolysaccharide (LPS) [33] = assay: Binding affinity to Escherichia coli 0111:B4 LPS by ITC method
[34] = Self-assembly property assessed as diameter of monodispersed micelles at 1 mg/ml at pH 2 by DLS method; assay type: physicochemical
[35] = Self-assembly property assessed as diameter of monodispersed micelles at 1 mg/ml at pH 7 by DLS method; assay type: physicochemical

With CCCCCCCCCCCCCCCC(=O)N[C@@H](CO)C(=O)N[C@@H](CCCCN)C(=O)N[C@H](C(=O)N[C@@H](Cc1c[nH]c2ccccc12)C(=O)N[C@@H](CCCNC(=N)N)C(=O)N[C@@H](Cc1cnc[nH]1)C(=O)N[C@@H](Cc1c[nH]c2ccccc12)C(=O)N[C@@H](CCCNC(=N)N)C(=O)N[C@@H](CCCNC(=N)N)C(=O)N[C@@H](Cc1ccccc1)C(=O)N[C@@H](Cc1c[nH]c2ccccc12)C(=O)N[C@@H](Cc1cnc[nH]1)C(=O)N[C@@H](CCCNC(=N)N)C(=O)N[C@@H](C)C(=O)N[C@@H](Cc1cnc[nH]1)C(=O)N[C@@H](CCCNC(=N)N)C(=O)N[C@@H](CCCCN)C(=O)N[C@@H](CC(C)C)C(=O)O)C(C)C (Palmitoyl-SKVWRHWRRFWHRAHRKL-OH) as the molecule, how does the Activity (Staphylococcus aureus [1]) read?
Its Activity is “Dose-dependent effect”.

What about the MIC (Pseudomonas aeruginosa) of the same molecule?
Its MIC is 6.25 µM (≈ 17.4 µg/mL).

What about the MIC (Enterococcus faecalis) of the same molecule?
The MIC was 6.25 µM (≈ 17.4 µg/mL).

What about the Activity (Lipid bilayer [2]) of the same molecule?
The Activity was 80%.

What about the MIC (Escherichia coli [3]) of the same molecule?
Its MIC is 12.5 µM (≈ 34.8 µg/mL).

What about the Activity (Lipid bilayer [4]) of the same molecule?
The Activity was 33%.

And the Activity (Lipid bilayer [5])?
The Activity was “Dose-dependent effect”.

And the Activity (Lipid bilayer [6])?
The Activity was 46%.

What about the viability at 1 h, up to 12.6 µM [7] of the same molecule?
Its viability at 1 h, up to 12.6 µM is 80%.

What about the inhibition at 12.6 µM (U-937 [8]) of the same molecule?
Its inhibition at 12.6 µM is 35%.

And the Activity (Lipid bilayer [9])?
The Activity was 18 nm.

What about the inhibition at 3.13 µM (U-937 [10]) of the same molecule?
Its inhibition at 3.13 µM is 24%.

What about the Activity [11] of the same molecule?
Its Activity is 24 nm.

What about the IC50 (MCF7) of the same molecule?
The IC50 was 20.6 µM.

What about the Activity (Lipopolysaccharide (LPS) [12]) of the same molecule?
The Activity was 100 nm.

And the IC50 (A-375)?
Its IC50 is 18.2 µM.

What about the inhibition (U-937 [13]) of the same molecule?
Its inhibition is “Dose-dependent effect”.

And the inhibition at 3.13 µM (U-937 [14])?
Its inhibition at 3.13 µM is 27%.

And the Activity (Lipid bilayer [15])?
The Activity was 14 nm.

And the Ka (Lipopolysaccharide (LPS) [16])?
The Ka was 114 mM⁻¹.

And the inhibition (U-937 [17])?
Its inhibition is “Dose-dependent effect”.

And the MIC (Staphylococcus aureus [18])?
Its MIC is 12.5 µM (≈ 34.8 µg/mL).

And the Activity [19]?
Its Activity is 200 nm.

What about the inhibition at 6.25 µM (U-937 [20]) of the same molecule?
Its inhibition at 6.25 µM is 32%.

What about the Activity (Lipid bilayer [21]) of the same molecule?
The Activity was “inactive”.

And the inhibition at 6.25 µM (U-937 [22])?
The inhibition at 6.25 µM was 31%.

What about the Activity (Escherichia coli [23]) of the same molecule?
Its Activity is “Active”.

And the Activity (Staphylococcus aureus [24])?
The Activity was “Active”.

What about the Activity (Lipid bilayer [25]) of the same molecule?
The Activity was 20%.

What about the IC50 (HeLa) of the same molecule?
The IC50 was 21 µM.

And the Activity [26]?
The Activity was 5460 nm.

What about the MIC (Enterococcus faecium) of the same molecule?
Its MIC is 3.13 µM (≈ 8.71 µg/mL).

And the HC50 at 1 h [27]?
Its HC50 at 1 h is > 500 µM.

What about the MIC (Bacillus cereus) of the same molecule?
Its MIC is 6.25 µM (≈ 17.4 µg/mL).

What about the Activity (Lipid bilayer [28]) of the same molecule?
The Activity was 55%.

What about the Activity (Escherichia coli [29]) of the same molecule?
The Activity was “Dose-dependent effect”.

What about the Activity (Lipopolysaccharide (LPS) [30]) of the same molecule?
Its Activity is 400 nm.

And the Activity (Lipid bilayer [31])?
The Activity was 54%.

What about the MIC (Lactococcus lactis) of the same molecule?
The MIC was 3.13 µM (≈ 8.71 µg/mL).

What about the inhibition at 12.6 µM (U-937 [32]) of the same molecule?
The inhibition at 12.6 µM was 35%.

What about the Kd (Lipopolysaccharide (LPS) [33]) of the same molecule?
The Kd was 8.77 µM.

Which Activity (Staphylococcus aureus [1]) does the source give for H-SKVWRHWRRFWHRAHRKL-OH here?
Its Activity is “Dose-dependent effect”.

What about the MIC (Pseudomonas aeruginosa) of the same molecule?
Its MIC is 1.56 µM.

And the MIC (Enterococcus faecalis)?
Its MIC is 3.13 µM.

What about the MIC (Escherichia coli [3]) of the same molecule?
Its MIC is 6.25 µM.

What about the Activity [34] of the same molecule?
Its Activity is 3990 nm.

And the Activity (Lipid bilayer [5])?
Its Activity is “Dose-dependent effect”.

What about the Activity [11] of the same molecule?
The Activity was 141 nm.

What about the IC50 (MCF7) of the same molecule?
The IC50 was 51.9 µM.

What about the IC50 (A-375) of the same molecule?
The IC50 was > 125 µM.

What about the MIC (Staphylococcus aureus [18]) of the same molecule?
Its MIC is 3.13 µM.

What about the Activity (Staphylococcus aureus [24]) of the same molecule?
Its Activity is “Active”.

What about the Activity [35] of the same molecule?
Its Activity is 60 nm.

And the Activity (Lipid bilayer [25])?
Its Activity is 20%.

And the IC50 (HeLa)?
Its IC50 is 113 µM.

What about the MIC (Enterococcus faecium) of the same molecule?
The MIC was 1.56 µM.

And the HC50 at 1 h [27]?
The HC50 at 1 h was > 500 µM.

What about the MIC (Bacillus cereus) of the same molecule?
Its MIC is 3.13 µM.

What about the Activity (Lipid bilayer [28]) of the same molecule?
Its Activity is 62%.

What about the Activity (Escherichia coli [29]) of the same molecule?
Its Activity is “Dose-dependent effect”.

And the MIC (Lactococcus lactis)?
The MIC was 3.13 µM.
